Data: the NIST ThermoML archive (doi:10.1021/je040002p)
Numbers after ± are expanded uncertainties.

Experiments:
[1] = Liquid; for mass density: 101.33 kPa, Pycnometric method
[2] = refractive index (Na D-line) (dimensionless); settings: 101.33 kPa, Liquid, Standard Abbe refractometry

Row | mass density ([1]; 293.15 K) [kg/m3] | Normal boiling temperature [1] [°C] | refractive index ([2]; 293.15 K) | mass density ([1]; 303.15 K) [kg/m3] | refractive index ([2]; 303.15 K) | Compound
1 | 811.2 ± 0.8 | 127.54 ± 0.13 | 1.4008 ± 0.0007 | – | – | CCCCC(C)=O [2-hexanone]
2 | – | 160.74 ± 0.14 | – | 941.6 ± 0.9 | 1.4621 ± 0.0007 | OC1CCCCC1 [cyclohexanol]
3 | 717.6 ± 0.7 | 150.82 ± 0.14 | 1.4055 ± 0.0007 | – | – | CCCCCCCCC [nonane]
